# Reference: article PMC4503722, “Novel Phenotypic Outcomes Identified for a Public Collection of Approved Drugs from a Publicly Accessible Panel of Assays” (PLoS ONE, 2015)
# Like-named read-outs stand apart in the source and are kept apart here.
# What was measured:
# INS-1E cells [1] = format: cell-based, rat; conditions: 0.1 mM glucose; for 0.1mMGluc_INS1E SecretionMod Act IC50/EC50: assay number 9; for insulin secretion at low glucose (in words): INS-1E
# INS-1E cells [2] = assay: cells; format: cell-based, rat
# [3] = tested on: tonic K+ channel activity in INS-1E cells; assay: cells; format: cell-based, rat; conditions: for 0.1mMGluc_INS1E FluxOR IC50/EC50: assay number 10; for IC50: Rattus norvegicus, INS-1E, read-out: K+ channel assay IC50
# HCT116 = assay: cells; format: cell-based; conditions: Homo sapiens
# [4] = tested on: nuclear β-catenin in C2C12 cells; assay: cells; format: cell-based; conditions: Mus musculus
# [5] = tested on: HCT116 cells treated with a GSK3β inhibitor; assay: cells; format: cell-based; conditions: Homo sapiens
# SW480 = assay: cells; format: cell-based; conditions: Homo sapiens
# [6] = tested on: endothelial tube formation in co-cultures of ECFCs and ADSCs treated with VEGF; assay: cells; format: cell-based, human; conditions: Homo sapiens, read-out: Anti-Angio IC50
# DLD-1 = assay: cells; format: cell-based; conditions: Homo sapiens
# NCI-H716 cells = assay: cells; format: cell-based, Human
# HeLa cells = assay: cells; format: cell-based; conditions: for EC50: Homo sapiens, read-out: CellCycle G2/M
# [7] = HCT-116, 72 h, read-out: HCT-116 viab. IC50, Table 2, basal, 72 h, Cell TiterGlo, non-adherent, 20 coded
# [8] = C2C12, Table 2, C2C12, […], 20 / 20.1 coded, read-out: Wnt pot. EC50
# [9] = HCT-116, read-out: HCT-116 (GSK3β) viab. IC50, Table 2, GSK3β inhibitor LY2090314 20 nM, 72 h, Cell TiterGlo, 20 coded
# [10] = SW480, 72 h, Table 2, 72 h, Cell TiterGlo, non-adherent, 20 coded, read-out: SW480 viab. IC50
# [11] = Rattus norvegicus, INS-1E; read-out: Ins. sec. EC50
# [12] = Rattus norvegicus; INS-1E, 5 mM glucose; read-out: insulin secretion EC50
# [13] = Table 2, primary assay tube area, 20 = no response in concentration-response, 20.1 = inactive in single concentration testing
# [14] = DLD-1, 72 h, Table 2, 72 h, Cell TiterGlo, non-adherent, 20 coded, read-out: DLD-1 viab. IC50
# [15] = Homo sapiens, NCI-H716; read-out: GLP1 sec. EC50
# 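For 5mMGluc INS1E SecretionMod IC50/EC50 in this document: secreted insulin quantified by homogeneous immunoassay.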
Compound,0.1mMGluc_INS1E SecretionMod Act IC50/EC50 (INS-1E cells [1]),5mMGluc_INS1E SecretionMod IC50/EC50 (INS-1E cells [2]; assay number 8; 5 mM glucose),0.1mMGluc_INS1E FluxOR IC50/EC50 ([3]; 0.1 mM glucose),IC50 (HCT116; [7]),"EC50 [4, 8]","IC50 [5, 9]",IC50 (SW480; [10]),EC50 (INS-1E cells [2]; [11]),"IC50 [6, 13]",IC50 (DLD-1; [14]),EC50 (NCI-H716 cells; [15]),other results
CN(C)CCN(Cc1ccc(Cl)cc1)c1ccccn1 [NCGC00016672-04],16.7904 µM,6.1408 µM,4.782 µM,–,–,–,–,–,–,–,–,–
CC1CC(=O)NN=C1c1ccc(NCC(C)(C)NCC(O)COc2cc(Cl)ccc2C#N)cc1 (stereo not shown) [NCGC00249416-01],> 33.33 µM,15.1547 µM,84.8421 µM,–,–,–,–,–,–,–,–,–
CC(C)C1CCC(C(=O)N[C@H](Cc2ccccc2)C(=O)O)CC1 (stereo partly shown) [NCGC00178741-03],> 33.33 µM,7.074 µM,0.2515 µM,–,–,–,–,–,–,–,–,–
CN(C)C/C=C(/c1ccc(Br)cc1)c1cccnc1.Cl.Cl.O [NCGC00025286-04],> 33.33 µM,8.361 µM,27.874 µM,–,–,–,–,–,–,–,–,–
"COc1ccc(Cl)cc1C(=O)NCCc1ccc(S(=O)(=O)NC(=O)NC2CCCCC2)cc1 [glibenclamide, reference compound]",–,–,–,> 20 µM,> 10 µM,> 20 µM,2.9 µM,0.002 µM,> 10 µM,> 20 µM,> 10 µM,"insulin secretion at low glucose (in words) (INS-1E cells [1]): stimulated insulin secretion at low glucose concentrations; IC50 (SW480; SW480, basal, SW480, read-out: Basal_Viability ATP SW480): 2.92 µM; EC50 (INS-1E cells [2]; Rattus norvegicus, INS-1E; read-out: Insulin Secretion): 0.00247 µM; EC50 (INS-1E cells [2]; [12]): 0.0025 µM"
"CC(CC1c2ccccc2CCc2ccccc21)CN(C)C (stereo not shown) [butriptyline, reference compound]",–,–,–,–,–,–,–,–,–,–,–,"IC50 (HCT116; HCT-116, 72 h, read-out: HCT-116 viab. IC50): 6.2 µM; IC50 (HCT116; HCT-116, read-out: Basal_Viability ATP HCT116): 6.21 µM; EC50 ([4]; C2C12, read-out: Wnt pot. EC50): > 10 µM; IC50 ([5]; HCT-116, 72 h, read-out: HCT-116 (GSK3β) viab. IC50): > 20 µM; IC50 (SW480; SW480, 72 h, read-out: SW480 viab. IC50): 7.8 µM; IC50 (SW480; SW480, read-out: Basal_Viability ATP SW480): 7.84 µM; EC50 (INS-1E cells [2]; Rattus norvegicus, INS-1E, read-out: Ins. sec. EC50): 3.6 µM; EC50 (INS-1E cells [2]; Rattus norvegicus, INS-1E, read-out: Insulin Secretion): 3.64 µM; IC50 [6]: > 10 µM; IC50 [3]: > 20 µM; EC50 (HeLa cells; HeLa): > 10 µM; IC50 (DLD-1; DLD-1, 72 h, read-out: DLD-1 viab. IC50): 8.1 µM; IC50 (DLD-1; DLD-1, read-out: Basal_Viability ATP DLD-1): 8.1 µM; EC50 (NCI-H716 cells; Homo sapiens, NCI-H716, read-out: GLP1 sec. EC50): > 10 µM"
"CCN(CCCCOC(=O)c1ccc(OC)c(OC)c1)C(C)Cc1ccc(OC)cc1 (stereo not shown) [mebeverine, reference compound]",–,–,–,> 20 µM,> 10 µM,> 20 µM,> 20 µM,2 µM,> 10 µM,> 20 µM,> 10 µM,"EC50 (INS-1E cells [2]; Rattus norvegicus; IC50 / EC50; INS-1E; read-out: Insulin Secretion): 1.95 µM; IC50 ([3]; 0.1 mM glucose, thallium flux): 1.7 µM; G2/M IC50 / EC50 (HeLa cells): 20 (values shown as 20 indicate that the compound was tested in concentration-response and showed no response at the highest concentration tested (e.g. IC50 > 20 μM)); EC50 (HeLa cells; HeLa, IC50 / EC50, HeLa): > 10 µM"
"CCOc1cc(CC(=O)N[C@@H](CC(C)C)c2ccccc2N2CCCCC2)ccc1C(=O)O [repaglinide, reference compound]",–,–,–,> 20 µM,> 10 µM,> 20 µM,> 20 µM,0.03 µM,> 10 µM,> 20 µM,> 10 µM,"insulin secretion at low glucose (in words) (INS-1E cells [1]): stimulated insulin secretion at low glucose concentrations; EC50 (INS-1E cells [2]; [12]): 0.027 µM; G2/M IC50 / EC50 (HeLa cells; Table 2, HeLa, […], 20 / 20.1 coded): 20.1"
